Data reported in US4914187A, “Ester derivatives of antibiotic L 17046” (Gruppo Lepetit S.p.A, priority 1989, dated 1990).
Values after ≈ are worked out from the molar mass of the structure shown.

Key:
[1] = pKa by titration; assay type: physicochemical; conditions: methylcellulose ®/water 4:1 (v/v), excess 0.01 M hydrogen chloride, titrated with 0.01 M NaOH
Description: ^(c) the samples are dissolved in methylcellulose ®/water 4:1
(v/v), an excess of 0.01 M hydrogen chloride in the same mixture is added
thereto and the resulting solution is titrated with 0.01 M NaOH in the […]

[2] = tested on: S. aureus TOUR; experiment: agar-dilution MIC test; assay type: cell-based
Source text: Isosensitest broth (Oxoid) and Todd-Hewitt broth (Difco) are used for growing staphylococci and streptococci, respectively. […]

[3] = tested on: E. coli SKF 12140; experiment: agar-dilution MIC test; assay type: cell-based
[4] = tested on: S. pyogenes C 203 SKF 13400; experiment: agar-dilution MIC test; assay type: cell-based
Description: (§1) Isosensitest broth (Oxoid) and Todd-Hewitt broth (Difco) are used for growing staphylococci and streptococci, respectively. Broth cultures are diluted so that the final inoculum is about 10^4 colony forming units/ml (CFU/ml).

[5] = tested on: S. aureus ATCC 6538; experiment: agar-dilution MIC test; assay type: cell-based; conditions: 18-24 h at 37° C.
Description: as §1

[6] = tested on: S. faecalis ATCC 7080; experiment: agar-dilution MIC test; assay type: cell-based
Description: as §1

[7] = tested on: S. pneumoniae UC 41; experiment: agar-dilution MIC test; assay type: cell-based
Description: as §1

[8] = tested on: S. epidermidis ATCC 12228; experiment: agar-dilution MIC test; assay type: cell-based
Description: as §1

[9] = S. aureus TOUR + 30% bovine serum

COC(=O)C1NC(=O)C2NC(=O)C(NC(=O)C3NC(=O)C4NC(=O)C(Cc5ccc(c(Cl)c5)Oc5cc3cc(c5O)Oc3ccc(cc3Cl)C2O[C@@H]2O[C@H](CO)[C@@H](O)[C@H](O)[C@H]2NC(C)=O)NC(=O)C(N)c2ccc(O)c(c2)Oc2cc(O)cc4c2)c2ccc(O)c(c2)-c2c(O)cc(O)cc21.Cl (some centres unmarked) [Example 1, antibiotic L 17046 methyl ester, hydrochloride]
pKa [1]: 6.70 | MIC ([2]; S. aureus TOUR (10^3 CFU/ml)): 0.125 µg/mL | MIC ([2]; S. aureus TOUR (10^6 CFU/ml)): 0.5 µg/mL | MIC [2, 9]: 0.25 µg/mL | MIC [3]: 128 µg/mL | MIC [4]: 0.5 µg/mL | MIC [5]: 0.125 µg/mL | MIC [6]: 0.5 µg/mL | MIC [7]: 0.5 µg/mL | MIC [8]: 0.016 µg/mL

CCOC(=O)C1NC(=O)C2NC(=O)C(NC(=O)C3NC(=O)C4NC(=O)C(Cc5ccc(c(Cl)c5)Oc5cc3cc(c5O)Oc3ccc(cc3Cl)C2O[C@@H]2O[C@H](CO)[C@@H](O)[C@H](O)[C@H]2NC(C)=O)NC(=O)C(N)c2ccc(O)c(c2)Oc2cc(O)cc4c2)c2ccc(O)c(c2)-c2c(O)cc(O)cc21.Cl (some centres unmarked) [Example 2, antibiotic L 17046 ethyl ester, hydrochloride]
pKa [1]: 6.68 | MIC ([2]; S. aureus TOUR (10^3 CFU/ml)): 0.25 µg/mL | MIC ([2]; S. aureus TOUR (10^6 CFU/ml)): 0.5 µg/mL | MIC [2, 9]: 0.5 µg/mL | MIC [3]: 128 µg/mL | MIC [4]: 0.5 µg/mL | MIC [5]: 0.25 µg/mL | MIC [6]: 0.5 µg/mL | MIC [7]: 0.5 µg/mL | MIC [8]: 0.016 µg/mL

CCCCOC(=O)C1NC(=O)C2NC(=O)C(NC(=O)C3NC(=O)C4NC(=O)C(Cc5ccc(c(Cl)c5)Oc5cc3cc(c5O)Oc3ccc(cc3Cl)C2O[C@@H]2O[C@H](CO)[C@@H](O)[C@H](O)[C@H]2NC(C)=O)NC(=O)C(N)c2ccc(O)c(c2)Oc2cc(O)cc4c2)c2ccc(O)c(c2)-c2c(O)cc(O)cc21.Cl (some centres unmarked) [Example 3, antibiotic L 17046 n-butyl ester, hydrochloride]
pKa [1]: 6.65 | MIC ([2]; S. aureus TOUR (10^3 CFU/ml)): 0.125 µg/mL | MIC ([2]; S. aureus TOUR (10^6 CFU/ml)): 0.25 µg/mL | MIC [2, 9]: 0.5 µg/mL | MIC [3]: 128 µg/mL | MIC [4]: 0.25 µg/mL | MIC [5]: 0.25 µg/mL | MIC [6]: 0.5 µg/mL | MIC [7]: 0.5 µg/mL | MIC [8]: 0.016 µg/mL

CC(=O)N[C@H]1[C@H](OC2c3ccc(c(Cl)c3)Oc3cc4cc(c3O)Oc3ccc(cc3Cl)CC3NC(=O)C(N)c5ccc(O)c(c5)Oc5cc(O)cc(c5)C(NC3=O)C(=O)NC4C(=O)NC3C(=O)NC2C(=O)NC(C(=O)OCCCl)c2cc(O)cc(O)c2-c2cc3ccc2O)O[C@H](CO)[C@@H](O)[C@@H]1O.Cl (some centres unmarked) [Example 4, antibiotic L 17046 2-chloroethyl ester, hydrochloride]
pKa [1]: 6.67 | MIC ([2]; S. aureus TOUR (10^3 CFU/ml)): 0.25 µg/mL | MIC ([2]; S. aureus TOUR (10^6 CFU/ml)): 0.5 µg/mL | MIC [2, 9]: 0.5 µg/mL | MIC [3]: 128 µg/mL | MIC [4]: 0.25 µg/mL | MIC [5]: 0.25 µg/mL | MIC [6]: 0.5 µg/mL | MIC [7]: 0.5 µg/mL | MIC [8]: 0.064 µg/mL

CC(=O)N[C@H]1[C@H](OC2c3ccc(c(Cl)c3)Oc3cc4cc(c3O)Oc3ccc(cc3Cl)CC3NC(=O)C(N)c5ccc(O)c(c5)Oc5cc(O)cc(c5)C(NC3=O)C(=O)NC4C(=O)NC3C(=O)NC2C(=O)NC(C(=O)OCCCCCl)c2cc(O)cc(O)c2-c2cc3ccc2O)O[C@H](CO)[C@@H](O)[C@@H]1O.Cl (some centres unmarked) [Example 5, antibiotic L 17046 4-chlorobutyl ester, hydrochloride]
pKa [1]: 6.66 | MIC ([2]; S. aureus TOUR (10^3 CFU/ml)): 0.125 µg/mL | MIC ([2]; S. aureus TOUR (10^6 CFU/ml)): 0.125 µg/mL | MIC [2, 9]: 0.5 µg/mL | MIC [3]: 128 µg/mL | MIC [4]: 0.25 µg/mL | MIC [5]: 0.25 µg/mL | MIC [6]: 0.25 µg/mL | MIC [7]: 0.125 µg/mL | MIC [8]: 0.064 µg/mL

CC(=O)N[C@H]1[C@H](OC2c3ccc(c(Cl)c3)Oc3cc4cc(c3O)Oc3ccc(cc3Cl)CC3NC(=O)C(N)c5ccc(O)c(c5)Oc5cc(O)cc(c5)C(NC3=O)C(=O)NC4C(=O)NC3C(=O)NC2C(=O)NC(C(=O)OCc2ccccc2)c2cc(O)cc(O)c2-c2cc3ccc2O)O[C@H](CO)[C@@H](O)[C@@H]1O.O=C(O)C(F)(F)F (some centres unmarked) [Example 8, antibiotic L 17046 benzyl ester trifluoroacetate]
MIC ([2]; S. aureus TOUR (10^3 CFU/ml)): 0.125 µg/mL | MIC ([2]; S. aureus TOUR (10^6 CFU/ml)): 0.125 µg/mL | MIC [2, 9]: 4 µg/mL | MIC [3]: 64 µg/mL | MIC [4]: 0.125 µg/mL | MIC [6]: 0.125 µg/mL | MIC [7]: 0.25 µg/mL | MIC [8]: 0.063 µg/mL

CC(=O)N[C@H]1[C@H](OC2c3ccc(c(Cl)c3)Oc3cc4cc(c3O)Oc3ccc(cc3Cl)CC3NC(=O)C(N)c5ccc(O)c(c5)Oc5cc(O)cc(c5)C(NC3=O)C(=O)NC4C(=O)NC3C(=O)NC2C(=O)NC(C(=O)OCc2ccc(C)cc2)c2cc(O)cc(O)c2-c2cc3ccc2O)O[C@H](CO)[C@@H](O)[C@@H]1O (some centres unmarked) [Example 10, antibiotic L 17046 (4-methyl)-benzyl ester]
MIC ([2]; S. aureus TOUR (10^3 CFU/ml)): 0.125 µg/mL (≈ 0.083 µM) | MIC ([2]; S. aureus TOUR (10^6 CFU/ml)): 0.25 µg/mL (≈ 0.166 µM) | MIC [2, 9]: 4 µg/mL | MIC [3]: 64 µg/mL (≈ 42.5 µM) | MIC [4]: 0.125 µg/mL (≈ 0.083 µM) | MIC [6]: 0.25 µg/mL (≈ 0.166 µM) | MIC [7]: 0.5 µg/mL (≈ 0.332 µM) | MIC [8]: 0.063 µg/mL (≈ 0.0418 µM)

CC(=O)N[C@H]1[C@H](OC2c3ccc(c(Cl)c3)Oc3cc4cc(c3O)Oc3ccc(cc3Cl)CC3NC(=O)C(N)c5ccc(O)c(c5)Oc5cc(O)cc(c5)C(NC3=O)C(=O)NC4C(=O)NC3C(=O)NC2C(=O)NC(C(=O)OCCO)c2cc(O)cc(O)c2-c2cc3ccc2O)O[C@H](CO)[C@@H](O)[C@@H]1O.O=C(O)C(F)(F)F (some centres unmarked) [Example 12, antibiotic L 17046 (2-hydroxy)ethyl ester trifluroacetate]
MIC ([2]; S. aureus TOUR (10^3 CFU/ml)): 0.125 µg/mL | MIC ([2]; S. aureus TOUR (10^6 CFU/ml)): 0.125 µg/mL | MIC [2, 9]: 0.5 µg/mL | MIC [3]: 128 µg/mL | MIC [4]: 0.25 µg/mL | MIC [6]: 0.25 µg/mL | MIC [7]: 1 µg/mL | MIC [8]: 0.063 µg/mL
